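Compound exposure: 48 hours, 5 concentrations, 96-well plates. At the TGI there is no net growth.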
Experiments:
Assay in all cases: growth of human tumour cells (NCI), 48 h
HT29 colon = tested on: HT29 colon
K-562 leukemia = tested on: K-562 leukemia
MDA-MB-231 breast = tested on: MDA-MB-231 breast
NCI-H460 lung = tested on: NCI-H460 lung

`CC(C(O)c1ccccc1)N(C)/N=N/c1nc2c([nH]1)c(=O)n(C)c(=O)n2C` (stereo unspecified) was tested, and the TGI (HT29 colon) was > 100 µM, the TGI (K-562 leukemia) was > 100 µM and the TGI (MDA-MB-231 breast) was > 100 µM. The TGI (NCI-H460 lung) was > 100 µM.
In the case of `CC1=C(C#N)C(=O)N(/N=C/c2ccc(Cl)cc2)C(=O)/C1=c1\o/c(=C2/C(=O)N(/N=C/c3ccc(Cl)cc3)C(=O)C(C#N)=C2C)c2nccnc12`, the TGI (HT29 colon) is reported as > 100 µM, the TGI (K-562 leukemia) is reported as > 100 µM and the TGI (MDA-MB-231 breast) is reported as > 100 µM. The TGI (NCI-H460 lung) was > 100 µM.
In the case of `CCCOc1ccc(/C=C/C2=[N+](CCO)CCO2)cc1`, the TGI (HT29 colon) is reported as > 100 µM, the TGI (K-562 leukemia) is reported as > 100 µM and the TGI (MDA-MB-231 breast) is reported as > 100 µM. For the same molecule, the TGI (NCI-H460 lung) was > 100 µM.
`CC(C)CC(=O)OC[n+]1cccc(-c2c(COC(=O)NC(C)C)c(COC(=O)NC(C)C)c3n2CCC3)c1` was tested, and the TGI (HT29 colon) was > 100 µM, the TGI (K-562 leukemia) was > 100 µM and the TGI (MDA-MB-231 breast) was > 100 µM. The TGI (NCI-H460 lung) was > 100 µM.
In the case of `O=S(=O)([N-]c1nc2ccccc2nc1-[n+]1ccccc1)c1ccccc1`, the TGI (HT29 colon) is reported as > 100 µM, the TGI (K-562 leukemia) is reported as > 100 µM and the TGI (MDA-MB-231 breast) is reported as 84.8 µM. For the same molecule, the TGI (NCI-H460 lung) was > 100 µM.
In the case of `NC(=O)CC1(O)C=CC(=O)C=C1`, the TGI (HT29 colon) is reported as > 100 µM, the TGI (K-562 leukemia) is reported as > 100 µM and the TGI (MDA-MB-231 breast) is reported as > 100 µM. The TGI (NCI-H460 lung) was > 100 µM.
In the case of `CCC1=NC(N/N=C/c2ccccc2O)=N/C1=C\c1ccccc1O`, the TGI (HT29 colon) is reported as 37.5 µM, the TGI (K-562 leukemia) is reported as > 100 µM and the TGI (MDA-MB-231 breast) is reported as > 100 µM. For the same molecule, the TGI (NCI-H460 lung) was 18.7 µM.
`COc1ccc2cc(CNCCCN3CCN(CCCNCc4ccc5cc(OC)ccc5c4)CC3)ccc2c1` gave a TGI (HT29 colon) of 1.65 µM, a TGI (K-562 leukemia) of 0.366 µM and a TGI (MDA-MB-231 breast) of 3.42 µM. It also gave a TGI (NCI-H460 lung) of 2.87 µM.
For `Cc1cc2c(cc1Cl)SC(NNC(=O)c1ccncc1)=NS2(=O)=O`, the TGI (HT29 colon) was > 10 µM, the TGI (K-562 leukemia) was > 10 µM and the TGI (MDA-MB-231 breast) was > 10 µM. The TGI (NCI-H460 lung) was > 10 µM.
In the case of `Cc1nc2c(n1CCCl)C(=O)c1ccccc1C2=O`, the TGI (HT29 colon) is reported as 44.7 µM, the TGI (K-562 leukemia) is reported as > 100 µM and the TGI (MDA-MB-231 breast) is reported as 56.5 µM. It also gave a TGI (NCI-H460 lung) of 65.9 µM.
For `COC(=O)C1=C(C(=O)OC)C(C(=O)c2ccccc2)N2N=C(c3ccc(Cl)cc3)C=CC12` (stereo unspecified), the TGI (HT29 colon) was > 100 µM, the TGI (K-562 leukemia) was > 100 µM and the TGI (MDA-MB-231 breast) was > 100 µM. For the same molecule, the TGI (NCI-H460 lung) was > 100 µM.
Molecule `CC(=O)CCC(=O)CC(O)(C(F)(F)F)C(F)(F)F` has a TGI (HT29 colon) of 34.7 µM, a TGI (K-562 leukemia) of 33.4 µM and a TGI (MDA-MB-231 breast) of 35 µM. The TGI (NCI-H460 lung) was 38.6 µM.
`COC(=O)c1cccc(C)c1C1CN=NC12Cc1c(ccc(C)c1C)C2=O` (stereo unspecified) was tested, and the TGI (HT29 colon) was > 100 µM, the TGI (K-562 leukemia) was > 100 µM and the TGI (MDA-MB-231 breast) was > 100 µM. For the same molecule, the TGI (NCI-H460 lung) was > 100 µM.
For `CC1=CC[C@@]2(C)[C@@H]([C@@H]1C)[C@H]1CC[C@@H]3[C@@]4(C)CC[C@H](O)C(C)(C)[C@@H]4CC[C@@]3(C)[C@]1(C)C[C@@H]2O`, the TGI (HT29 colon) was 46 µM, the TGI (K-562 leukemia) was > 100 µM and the TGI (MDA-MB-231 breast) was 20.2 µM. For the same molecule, the TGI (NCI-H460 lung) was > 67.7 µM.
